Like-named read-outs stand apart in the source and are kept apart here.
Assays:
PYL2 + HAB1 [1] = target: T1, PYL2 + HAB1 (Arabidopsis thaliana, UniProt O80992); experiment: AlphaScreen experiment, PYL2 + HAB1; format: binding
T1 construct: made in house; host or cells: E. coli BL21 (DE3)
T1 sequence (O80992 14-188 limits assumed): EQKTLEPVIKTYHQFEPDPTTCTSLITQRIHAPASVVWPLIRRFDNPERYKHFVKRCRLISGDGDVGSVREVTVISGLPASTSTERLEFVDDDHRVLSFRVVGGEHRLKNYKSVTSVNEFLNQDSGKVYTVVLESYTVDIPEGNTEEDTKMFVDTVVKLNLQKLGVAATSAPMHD
T1 sequence (Q9CAJ0 172-511 partner limits assumed): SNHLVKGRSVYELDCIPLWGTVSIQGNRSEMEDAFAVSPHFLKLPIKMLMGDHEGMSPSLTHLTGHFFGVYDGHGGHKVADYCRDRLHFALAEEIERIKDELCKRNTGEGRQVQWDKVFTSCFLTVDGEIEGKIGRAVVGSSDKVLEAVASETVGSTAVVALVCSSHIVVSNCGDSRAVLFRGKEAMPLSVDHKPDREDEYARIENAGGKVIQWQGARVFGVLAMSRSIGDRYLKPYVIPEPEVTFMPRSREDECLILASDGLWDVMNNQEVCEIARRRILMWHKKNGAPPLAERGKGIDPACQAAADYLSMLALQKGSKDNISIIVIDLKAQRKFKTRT
Experimental: (§1) After incubating for 1.5 hours at room temperature in the dark, it was placed into an Envision Plate Reader (available from Perkin Elmer) under the programmed AlphaScreen procedure for readings.

PYL7 + HAB1 = target: T2, PYL7 + HAB1 (Arabidopsis thaliana, UniProt Q1ECF1); experiment: AlphaScreen experiment, PYL7 + HAB1; format: binding
T2 construct: made in house; host or cells: E. coli BL21 (DE3)
T2 sequence (Q1ECF1 1-211): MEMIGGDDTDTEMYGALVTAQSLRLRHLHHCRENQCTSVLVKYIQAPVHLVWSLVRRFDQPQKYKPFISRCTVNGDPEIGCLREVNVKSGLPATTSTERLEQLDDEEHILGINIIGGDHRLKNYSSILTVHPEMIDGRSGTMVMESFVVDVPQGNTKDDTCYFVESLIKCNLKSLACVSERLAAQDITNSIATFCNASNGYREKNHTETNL
T2 sequence (Q9CAJ0 172-511 partner limits assumed): T1 sequence (Q9CAJ0 172-511 partner limits assumed)
Experimental: as §1

PYR1 + HAB1 = target: T3, PYR1 + HAB1 (Arabidopsis thaliana, UniProt O49686); experiment: AlphaScreen experiment, PYR1 + HAB1; format: binding; settings: column 2
T3 sequence (O49686 1-191): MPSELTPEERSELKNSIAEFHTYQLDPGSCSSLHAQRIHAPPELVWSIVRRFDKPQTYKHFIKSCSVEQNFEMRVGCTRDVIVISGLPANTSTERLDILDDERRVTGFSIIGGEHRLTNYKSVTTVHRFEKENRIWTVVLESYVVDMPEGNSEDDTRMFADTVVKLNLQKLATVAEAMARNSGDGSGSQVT
T3 sequence (Q9CAJ0 172-511 partner): T1 sequence (Q9CAJ0 172-511 partner limits assumed)
Experimental: as §1

[2] = tested on: Arabidopsis thaliana Col-0 ecotype seeds; experiment: Seed germination, Col-0; format: in vivo; settings: 1 μM; six days after seeding
Source text: (§2) Two lines of plant were sown simultaneously on a single medium of 6 cm diameter, with 15 seeds sown for each line and 4 replicates for each compound. […]

[3] = tested on: pyr1;pyl1;pyl4 triple mutant seeds; experiment: Seed germination, PYR/PYL triple mutant; format: in vivo, Arabidopsis thaliana; settings: 1 μM; six days after seeding
Source text: as §2

[4] = tested on: Arabidopsis ABA synthesis defective mutant aba2-1; format: in vivo, Arabidopsis thaliana; settings: 5 μM sprayed; after two days; vs DMSO
soybean Williams 82 = experiment: Soybean leaf transpiration experiment (thermal imaging); format: in vivo
Experimental: After three weeks of continuous watering, 0.05% tween-20 and corresponding concentrations of DMSO (control)/compound (+)-ABA/0918/1127 were sprayed onto the plants in a single administration with an amount of 1.2 ml/pot. Images were taken daily using the FLIR A655sc thermal imaging camera at the same time before and after spraying. The Williams 82 ecotype was used in soybean leaf transpiration experiments for compounds 0604c, 0918 and 1127 and was long-day cultured at 26° C. After the plants grew and had 3 leaves in each of 3 groups, 0.05% tween-20 and 50 μM DMSO (control)/(+)-ABA/0604c/0918/1127 compounds were sprayed in a single administration with an amount of 4 ml/pot. Images were taken daily using the FLIR A655sc thermal imaging camera at the same time before and after spraying.
(§3) Leaf transpiration experiments of soybean and cotton for compound 0720B were carried out at 26° C. with long-day lighting. 16 days and 23 days after sowing, a solution containing 0.1% tween-20 and corresponding concentration of (+)-ABA, or 0720B compound or 0.1% Tween-20 and 0.05% DMSO (control) was sprayed in an amount of 4 ml/pot. Images were taken daily using the FLIR A655sc thermal imaging camera at the same time before and after spraying.

cotton = experiment: Cotton leaf transpiration experiment (thermal imaging); format: in vivo; settings: 50 μM; after two days; vs DMSO
Experimental: as §3

[5] = tested on: Arabidopsis Col-0 ecotype; experiment: Soil drought experiment, Arabidopsis; format: in vivo, Arabidopsis thaliana
Experimental: Seeds of Arabidopsis Col-0 ecotype were sterilized with NaClO and then sown on ½ MS solid medium at 4° C. for 3 days of vernalization. After 6 days of growing, the well-grown seedlings having uniform size were selected and transferred into 8×7×6 cm^3 pots. Each pot was filled with the same weight of soil and the same number of plants (six plants) was planted to reduce experimental error. All the pots were subjected to a short-day culture at 22° C. After two weeks, watering was stopped for drought treatment. […] The position of the flowerpot was changed every day during the process of drought to reduce the error caused by environmental factors. During the whole drought period, the solution was sprayed twice in total and photos were recorded regularly. The watering was resumed in about three weeks.

PYL2 + HAB1 [6] = target: T1, PYL2 + HAB1; experiment: HAB1 phosphatase activity assay with PYL2, SnRK2.6 phosphorylated polypeptide substrate; format: biochemical
Experimental: (§4) HAB1 Phosphatase Activity Assay […] The reaction system was incubated at room temperature for 30 minutes, followed by a further reaction for 30 minutes after adding an 11-amono acid phosphorylated polypeptide as a substrate. The phosphorylated polypeptide consisting of amino acid 170-180 of SnRK2.6 protein kinase (sequence […]) was purchased from […] company, wherein phosphorylated […] was a known HAB1 dephosphorylation target site. After 30 minutes, chromogenic reagent (purchased from BioVision) was added and the absorbance at 650 nm was read on a microplate reader (Molecular Devices).

[7] = tested on: ABA-induced environmental stress-related gene expression; experiment: Gene expression analysis (fluorescence quantitative PCR); format: in vivo, Arabidopsis thaliana (Col-0); settings: for expression levels of most ABA-induced stress-related genes compared with ABA: 10 μM, 6 hours of treatment, 10-day-aged seedlings
Experimental: The whole plant or leaves were taken, and RNA extraction was carried out by using conventional methods. After reverse transcription, the fluorescence quantitative PCR was carried out. Triple biological samples were taken for each treatment which was performed twice. The ACT7 gene was used as a reference gene.

[8] = tested on: PYR/PYL receptors (PYR1, PYL1, PYL2 and PYL7)-HAB1 complex; experiment: Broad spectrum experiment on PYR/PYL receptors (HAB1 phosphatase activity); format: biochemical, Arabidopsis; settings: 1 μM
Experimental: as §4

[9] = tested on: soybean GmPYL3 and GmPYL6 + Arabidopsis AtHAB1; experiment: AlphaScreen experiment with soybean GmPYL receptors; format: binding; settings: FIG. 9
Experimental: as §1

[10] = 5 μM sprayed, 18 days after drought
[11] = 10 μM sprayed, after 17 days of drought
[12] = number in brackets, read-out: Half maximum effect concentration EC50 (PYL2 + HAB1)
[13] = number in brackets, read-out: Half maximum effect concentration EC50 (PYL7 + HAB1)
[14] = number in brackets, read-out: Half maximum effect concentration EC50 (PYR1 + HAB1)

CC1=CC(=O)CC(C)(C)[C@@]1(O)/C=C/C(C)=C\C(=O)O [ABA, Abscisic Acid, reference compound]
EC50 (PYL2 + HAB1 [1]; Half maximum effect concentration EC50 (PYL2 + HAB1), class, class symbol): 100 to 1000 nM
EC50 (PYL2 + HAB1 [1]; Half maximum effect concentration EC50 (PYL2 + HAB1), number in brackets): 410 nM
EC50 (PYL7 + HAB1; Half maximum effect concentration EC50 (PYL7 + HAB1), class, class symbol): 1000 to 10000 nM
EC50 (PYL7 + HAB1; Half maximum effect concentration EC50 (PYL7 + HAB1), number in brackets): 1070 nM
EC50 (PYR1 + HAB1; Half maximum effect concentration EC50 (PYR1 + HAB1), class, class symbol): 100 to 1000 nM
EC50 (PYR1 + HAB1; Half maximum effect concentration EC50 (PYR1 + HAB1), number in brackets): 700 nM
germination of Col-0 ecotype seeds [2]: could still inhibit germination of Col-0 ecotype seeds
germination of pyr1;pyl1;pyl4 triple mutant seeds [3]: could not inhibit germination of PYR/PYL triple mutant pyr1;pyl1;pyl4 seeds
leaf surface temperature [4]: higher than that of DMSO control group
leaf temperature (soybean Williams 82; 50 μM sprayed, 0.2 μmol per plant, after three days, vs DMSO): had no difference with the control
leaf temperature (soybean Williams 82; two days after spraying, 0720B 20 μM or 50 μM, ABA 50 μM): had no difference from that in the control group
leaf temperature (cotton): had no difference from that in the control group
plant survival [5, 10]: died because of drought
plant survival [5, 11]: died because of drought

CCCN1C(=O)CCc2cc(NS(=O)(=O)Cc3ccc(C)cc3)ccc21 [AM1, 4-methyl-N-(1,2,3,4-tetrahydro-2-oxo-1-propyl-6-quinolinyl)-benzene methanesulfonamide, reference compound]
EC50 (PYL2 + HAB1 [1]; [12]): 480 nM
inhibition ratio Z of HAB1 relative enzyme activity (PYL2 + HAB1) (PYL2 + HAB1 [6]; at 0.1 μM, Z relative to ABA): 86%
germination of Col-0 ecotype seeds [2]: could still inhibit germination of Col-0 ecotype seeds
germination of pyr1;pyl1;pyl4 triple mutant seeds [3]: could not inhibit germination of PYR/PYL triple mutant pyr1;pyl1;pyl4 seeds
leaf surface temperature [4]: higher than that of DMSO control group
plant survival [5, 11]: died because of drought
expression levels of most ABA-induced stress-related genes compared with ABA [7]: lower than the level in the plants treated with 10 μM ABA

CCCN1C(=O)CCc2cc(NS(=O)(=O)Cc3ccc(C)c(F)c3)ccc21 [Compound 0604c]
EC50 (PYL2 + HAB1 [1]; [12]): 40 nM
EC50 (PYL7 + HAB1; [13]): 30 nM
EC50 (PYR1 + HAB1; [14]): 40 nM
binding to PYR/PYL receptors [8]: could bind with PYR1/PYL1/PYL2/PYL3/PYL4/PYL5/PYL7/PYL10
binding ability with PYR1/PYL1/PYL2/PYL7 compared with ABA ([8]; FIG. 1, FIG. 13): significantly higher than those of ABA
affinities for soybean GmPYL proteins compared with ABA [9]: significantly higher affinities
germination of Col-0 ecotype seeds [2]: could still inhibit germination of Col-0 ecotype seeds
germination of pyr1;pyl1;pyl4 triple mutant seeds [3]: could not inhibit germination of PYR/PYL triple mutant pyr1;pyl1;pyl4 seeds
plant survival [5, 11]: still survived
expression levels of most ABA-induced stress-related genes compared with ABA [7]: significantly exceeded the level in the plants treated with 10 μM ABA
expression level of relevant genes compared with ABA ([7]; one day after treatment, ABA 10 μM): significantly higher than that in the plants treated with 10 μM ABA

CCCn1c(=O)ccc2cc(NS(=O)(=O)Cc3c(F)c(F)c(C)c(F)c3F)ccc21 [Compound 0717]
expression levels of most ABA-induced stress-related genes compared with ABA [7]: significantly exceeded the level in the plants treated with 10 μM ABA

CCCN1C(=O)CC(C)(C)c2cc(NS(=O)(=O)Cc3c(F)c(F)c(C)c(F)c3F)ccc21 [Compound 0825A]
inhibition of the dephosphorylation effect of HAB1 on SnRK2.6 phosphorylated polypeptide compared with ABA (PYL2 + HAB1 [6]; PYL2 receptor, same concentration as ABA): significantly better than that of ABA at the same concentration

CCCN1C(=O)CCc2cc(NS(=O)(=O)Cc3ccc(Cl)cc3F)ccc21 [Compound 0925]
EC50 (PYL2 + HAB1 [1]; [12]): 60 nM
EC50 (PYR1 + HAB1; [14]): 40 nM

CCCN1C(=O)CCc2cc(NS(=O)(=O)Cc3ccc(C(F)(F)F)c(F)c3)ccc21 [Compound 1020A]
EC50 (PYL2 + HAB1 [1]; [12]): 80 nM
EC50 (PYR1 + HAB1; [14]): 140 nM

CCCN1C(=O)CCc2cc(NS(=O)(=O)Cc3c(F)c(F)c(C(F)(F)F)c(F)c3F)ccc21 [Compound 1020B]
EC50 (PYL2 + HAB1 [1]; [12]): 80 nM
EC50 (PYR1 + HAB1; [14]): 50 nM

CCCN1C(=O)CCc2cc(NS(=O)(=O)Cc3ccc(C)c(Cl)c3)ccc21 [Compound 1103B]
EC50 (PYL2 + HAB1 [1]; [12]): 50 nM
EC50 (PYL7 + HAB1; [13]): 150 nM
EC50 (PYR1 + HAB1; [14]): 120 nM

CCCN1C(=O)CCc2cc(NS(=O)(=O)Cc3ccc(C)cc3F)ccc21 [Compound 1125A]
EC50 (PYL2 + HAB1 [1]; [12]): 30 nM
EC50 (PYL7 + HAB1; [13]): 40 nM
EC50 (PYR1 + HAB1; [14]): 50 nM

CCCN1C(=O)CCc2cc(NS(=O)(=O)Cc3cc(F)c(C)c(F)c3)ccc21 [Compound 1125B]
EC50 (PYL2 + HAB1 [1]; [12]): 20 nM
EC50 (PYL7 + HAB1; [13]): 20 nM
EC50 (PYR1 + HAB1; [14]): 20 nM
plant survival [5, 10]: still survived
